Here are results for five molecules from patent US20200000087A1, “COMPOSITIONS FOR APPLICATION TO AERIAL PARTS OF PLANTS” (EXOSECT LIMITED, priority 2017, published 2020).

Where two headings read alike, the source gives them in different places.

Series [1] concerns Zymoseptoria tritici (formerly Septoria tritici). Kind of series: Translaminar activity of Azoxystrobin formulated in Entostat against Z. tritici on wheat. In kind it is in vivo. The note with it: control of Zymoseptoria tritici; compared with conventional formulation. The text has this:
• Test item type and Entostat SC contains in 300 g/L Entostat (Polyethylene contents: wax variant), with the wax component formulated with 81.8 g/L Azoxystrobin (8.18% w/w Azoxystrobin in SC) • Test item rate: The Entostat formulation was applied at a rate 2.68 L/ha delivering 219 g a.i/ha (which delivers Azoxystar's maximum label amount of active ingredient). • Reference item type Azoxystar—SC Strobilurin fungicide containing […] and contents: of Azoxystrobin (22.9 w/w Azoxystrobin in SC). • Reference item rate: Azoxystar was applied at the maximum recommended label rate (0.88 L/ha delivering 219 g a.i/ha) • Application interval: Once at wheat growth stage 12
200 square plastic pots (7×7×8 cm) were filled with J. Arthur Bower No. 1 seedling compost and drenched with tap water. Into each pot six spring wheat (T. aestivum cv. KWS Kielder) seeds were double sown. The pots were placed within four Secret Jardin 120 growth tents in a fully randomised block design of 40 blocks (5 pots per block). All plants were grown under a light, temperature and relative humidity (RH) regime of 16:8 light/dark, 20° C./17° C. and 80% RH. Pots were watered via capillary matting with tap water when required. No additional nutrients were supplied throughout the study. Fourteen days after sowing the six plants in each pot were reduced to three of uniform size. […]

Series [2] is described as follows: Azoxystrobin retention on maize seed after Heubach mechanical stress (GC-ECD). In kind it is physicochemical. Here is the method: • Test item type and 1. Polyethylene Entostat (W3800) containing 499 mg/g contents: Azoxystrobin fungicide. • 2. Carnauba Entostat (W3738) containing 435 mg/g Azoxystrobin fungicide. • Test item rate: When using a commercial standard biological efficacy in maize is observed at […] seed. W3800 and W3738 were applied at […] of that commercial standard a.s. rate Table 1. • Application interval: Single application at the start of the study • Supplier: Entostat, Exosect, UK • Azoxystrobin, Albaugh, USA. • Storage: Pesticide cabinet in formulation laboratory, Exosect
The independent factors were, dry powder seed treatment formulation type (W3800 and W3738) and Azoxystrobin application rate (Low, Medium, and High). Residues of the active ingredient Azoxystrobin recovered from maize before and after mechanical stress were quantified. Each treatment will be replicated ten times. Work involving the Heubach Dustmeter was conducted according to know standard procedures.
Seeds were equilibrated in incubator 308 at 20° C.±2° C. and at 50%±10% relative humidity for at least 48 hours prior to testing.
Treatments were weighed into sterile 1 L Duran bottles along with 500 g of maize seeds. The treatments were homogenized for 30 seconds by gently agitating using the Stuart Rotator with MIX2040 attachment. 50 maize seeds were removed from each batch, weighed, and placed in a bioassay jar for pre mechanical stress quality control analysis. One 100 g sample were removed from each batch.
The 100 g sample was mechanically stressed in the Heubach Dustmeter (Heubach GMbh, Heubachstrasse7, 38685 Langelsheim), following the procedures outlined in TDRF311. Work involving the Heubach Dustmeter was conducted between 23° C. and 29° C. and 30% and 70% relative humidity in Bioassay Room 2. After the cycle, treated seeds were removed from the rotating drum. 50 maize seeds were removed from each batch, weighed, and placed in a bioassay jar for post mechanical stress quality control analysis.
Azoxystrobin present on the seed samples taken before and after Heubach mechanical stress were analysed using gas chromatography with electron capture detector (GC-ECD). From these values the percentage change of Azoxystrobin a.s. retained by the seeds mechanical stress was calculated.
Percentage Azoxystrobin retained on maize seed after mechanical stress was modelled using R (version 3.3.1). After testing for normality using a Shapiro-Wilk normality test, ANOVA was used to analyse the data linear model. Percentage Azoxystrobin retention was modelled as a function of the factors formulations type (W3800 and W3738), Azoxystrobin application rate (0.006259, 0.06259 and 0.6259 g a.s./kg seed) and interactions between the factors. Formulation W3800 at its lowest application (0.006259 g a.s./kg seed) was used as the control.

The test system of series [3] is Triticum aestivum (Spring wheat) variety KWS Alderon. Kind of series: Translaminar (herbicidal) activity of Quizalofop-p-ethyl formulations sprayed on wheat, EPPO PP1/135 assessment. The note with it: control of volunteer wheat; compared with conventional formulation. In kind it is in vivo.
Series [4] is described as follows: Loading of acetamiprid dry powder seed treatment on seeds. In kind it is physicochemical.
The conditions of series [5]: cited from earlier work.
The subject of series [6] is German cockroach, Blattella germanica. As to conditions: cited from earlier work.

For `CO/C=C(/C(=O)OC)c1ccccc1Oc1cc(Oc2ccccc2C#N)ncn1` [Azoxystrobin, Methyl (2E)-2-(2-{[6-(2-cyanophenoxy)pyrimidin-4-yl]oxy}phenyl)-3-methoxyacrylate], the “effectiveness of Entostat matrix encapsulated formulation as foliar spray” value in series [1] is on record as “as effective as a conventional Suspension Concentrate (SC) formulation”. Moreover, the entries for the “less Azoxystrobin retained compared to the lowest application rate” value in series [2] (high application rate (0.6259 g a.s./Kg)) and in series [2] (medium application rate (0.06259 g a.s./Kg)) were 21% and 7%, respectively. Also, the “Azoxystrobin retained of original application” value in series [2] (high application rate (0.6259 g a.s./Kg), across formulations) worked out at 41%; in series [2] (lowest application rate (0.006259 g a.s./Kg), across formulations W3800 and W3738), 62%; in series [2] (medium application rate (0.06259 g a.s./Kg), across formulations), 55%. Also, the “dose of Azoxystrobin which remains on the surface of the maize” value in series [2] (medium dose, after mechanical stress) stood at 0.0346 mg·s/kg.
For the molecule `CCOC(=O)[C@@H](C)Oc1ccc(Oc2cnc3cc(Cl)ccc3n2)cc1` [Quizalofop-p-ethyl, ethyl (2R)-2-[4-(6-chloroquinoxalin-2-yl)oxyphenoxy]propanoate], in series [3], the “effectiveness of Entostat matrix encapsulated formulation as foliar spray” value was “as effective as a conventional Suspension Concentrate (SC) formulation”.
`C/C(=N\C#N)N(C)Cc1ccc(Cl)nc1` [acetamiprid]: the results for the “relative percentage loading on seeds” value in series [4] (after 10 fold decrease in powder application) and in series [4] (before 10 fold decrease in powder application) were 80% and 52%, respectively.
`CCOP(=S)(OCC)Oc1nc(Cl)c(Cl)cc1Cl` [chlorpyrifos]: the “time to release 50% of the insecticide” value in series [5] (encapsulated formulation, sodium alginate and starch microspheres) was 5 days. Moreover, the “time to release 50% of chlorpyrifos” value in series [5] (free chlorpyrifos) was 1 days.
In the case of `CC1(C)[C@H](C(=O)O[C@H](C#N)c2cccc(Oc3ccccc3)c2)[C@@H]1/C=C(\Cl)C(F)(F)F` (racemic) [lambda-cyhalothrin], the knock down period was 10.33 min in series [6] (Emulsifiable Concentrate (EC)) and 17.16 min in series [6] (microencapsulated formulation).
